# Measured values: patent US20260199493A1 (priority 2021, published 2026)
# Legend:
# [1] = system: human dystrophin (DMD) exon 44; experiment: Exon 44 skipping in DMD patient-derived muscle cells; assay type: cell-based; conditions: dose-dependent, maximum observed
# Description: After 24 hours, the compound-containing growth medium was replaced with DMEM/2% horse serum and incubated for 5 days to promote myoblast fusion and differentiation into myotubes. Cells were washed and harvested for RNA extraction to assess exon 44 skipping, or in RIPA buffer containing protease inhibitors for protein extraction and Simple Western analysis of dystrophin protein restoration. Dystrophin levels were normalized to HSP90 and expressed relative to untreated healthy samples. Data are expressed as mean±SD, n=3-4. Untreated DMDΔ45 patient derived cells express ~10% spontaneous DMD exon 44 skipping and ~4% dystrophin protein at baseline.
# [2] = system: exon 44 of human dystrophin mRNA; experiment: Exon 44 skipping by RT-PCR in hDMD mice; assay type: in vivo
# Description: The hemizygous mice were further genotyped at Transnetyx. All groups were dosed 5 mL/kg per animal by intravenous (iv) injection and sacrificed after 5 days post injection. All animals were euthanized by CO2 asphyxiation followed by terminal blood collection via cardiac puncture. Maximum obtainable volume of whole blood was collected into lithium heparin tubes and processed to plasma. A portion of plasma was analyzed for clinical chemistries by the Testing Facility (IDEXX) and the rest stored frozen at nominally −70° C. […] Animals were age matched and assigned into eight (8) treatment groups according to Table 15. […] All animals survived until their scheduled euthanasia time. Tissues were collected per protocol. The amount of AC and a cCPP-AC in various tissue samples was quantified by LC-MS. Exon skipping in different tissues were analyzed by RT-PCR and the quantification of exon 44 correction.
# (§1) Exon Skipping Analysis by RT-PCR: hDMD mice and NHP express full-length human dystrophin mRNA. The delivery of AC can alter the splicing and result in a shortened dystrophin mRNA after exon 44 skipping. The tissues were homogenized using 1 mL of RLT lysis buffer (Qiagen, Cat #79216). The detection of splicing correction process was measured by RT-PCR where extracted RNAs from tissues were first reverse-transcribed into cDNA and further analyzed by one step RT-PCR using the following primer set: forward primer 5′-[…]-3′ (SEQ ID NO: 262) and reverse primer 5′-[…]-3′ (SEQ ID NO: 263). […] Quantification of the relative intensity of the bands corresponding to skipped and unskipped transcripts were performed to assess AC-induced exon-44-skipping efficacy. The degree (percentage) of splicing correction detected by RT-PCR was calculated using the following equation: % correction=(intensity of 493 bp fragment band)/(intensity of 493 bp fragment band+intensity of 641 bp fragment band).
# [3] = system: exon 44 of dystrophin mRNA; experiment: Exon 44 skipping by RT-PCR in NHP; assay type: in vivo, cynomolgus monkeys
# Description: Each testing article was formulated in saline at 4 mg/mL. Bloods and urine were taken at times indicated in Table 18 for further PK analysis. Biopsy at 2 days post injection was performed on biceps. Animals were sacrificed at day 7 post injection and skeletal muscles (quadriceps, diaphragm, biceps, deltoid, tibialis anterior (TiA), smooth muscles (esophagus, aorta, colon) and cardiac muscles (ventricle, atrium) were taken, pulverized, and stored at −80° C. for evaluation of exon skipping and biodistribution in tissues.
# as §1
# Approximately 20 hours post dose the animal was (bright, alert, and responsive such that the animal was phenotypically “normal”) (BAR) and had zero biscuits left in the cage and was observed eating produce.
substance,measurement,setting,value
Ac-PKKKRKV-AEEA-Lys-(cyclo[FGFGRGRQ])-PEG12-OH [EEV-PMO-DMD44-1],exon 44 skipping,[1],up to 100%
same,exon skipping,"[2]; hDMD mice, 10 mpk IV, 5 days, Diaphragm",6%
same,exon skipping,"[2]; hDMD mice, 10 mpk IV, 5 days, TiA",12%
same,exon skipping,"[2]; hDMD mice, 10 mpk IV, 5 days, Triceps",6%
same,exon skipping,"[2]; hDMD mice, 10 mpk IV, 5 days, heart",0%
same,exon skipping,"[2]; hDMD mice, 20 mpk IV, 5 days, Diaphragm",33%
same,exon skipping,"[2]; hDMD mice, 20 mpk IV, 5 days, TiA",36%
same,exon skipping,"[2]; hDMD mice, 20 mpk IV, 5 days, Triceps",22
same,exon skipping,"[2]; hDMD mice, 20 mpk IV, 5 days, heart",0%
same,exon skipping,"[2]; hDMD mice, 40 mpk IV, 5 days, Diaphragm",82%
same,exon skipping,"[2]; hDMD mice, 40 mpk IV, 5 days, TiA",99%
same,exon skipping,"[2]; hDMD mice, 40 mpk IV, 5 days, Triceps",94%
same,exon skipping,"[2]; hDMD mice, 40 mpk IV, 5 days, heart",20%
same,exon skipping,"[2]; hDMD mice, 80 mpk IV, 5 days, Diaphragm",98%
same,exon skipping,"[2]; hDMD mice, 80 mpk IV, 5 days, TiA",99%
same,exon skipping,"[2]; hDMD mice, 80 mpk IV, 5 days, Triceps",97%
same,exon skipping,"[2]; hDMD mice, 80 mpk IV, 5 days, heart",79%
same,minimum efficacious dose in the heart,"[2]; hDMD mice, IV, 5 days",40 mpk
same,exon skipping,"[2]; mouse, in vivo",up to 100%
same,exon 44 skipping across different muscle groups,"[3]; 30 mg/kg, 1 hour IV infusion, 7 days",robust exon 44 skipping
same,exon skipping in all skeletal muscles,"[3]; 40 mpk IV, 7-d post injection",more than 78%
same,"exon skipping, atrium","[3]; 40 mpk IV, 7-d post injection",23.4%
same,"exon skipping, diaphragm","[3]; 40 mpk IV, 7-d post injection",98.4%
same,"exon skipping, esophagus","[3]; 40 mpk IV, 7-d post injection",57.1%
same,"exon skipping, ventricle","[3]; 40 mpk IV, 7-d post injection",31.9%
